Where a SMILES comes first, the peptide text is derived from it. Bridges are numbered along the chain shown (N, C = ends). [ ]: non-standard residue; d: D form. The star is where a group is joined. ξ: configuration not given here. Phe(4-COOH) = N[C@@H](Cc1ccc(C(=O)O)cc1)C(=O)O; Bip = N[C@@H](Cc1ccc(-c2ccccc2)cc1)C(=O)O; NH(CH2)14COOH = O=C(O)CCCCCCCCCCCCCCN*; Phe(3-Me) = Cc1cccc(C[C@H](N)C(=O)O)c1; Val(3-OH) = CC(C)(O)[C@H](N)C(=O)O; hArg = N=C(N)NCCCC[C@H](N)C(=O)O; 4Pal = N[C@@H](Cc1ccncc1)C(=O)O; 3Thi = N[C@@H](Cc1ccsc1)C(=O)O; Cha = N[C@@H](CC1CCCCC1)C(=O)O; Cit = NC(=O)NCCC[C@H](N)C(=O)O; Thr(3ξ) = CC(O)[C@H](N)C(=O)O; Chg = N[C@H](C(=O)O)C1CCCCC1; Carboxymethyl = O=C(O)C*; NMeA = CN[C@@H](C)C(=O)O; Orn = NCCC[C@H](N)C(=O)O; Pra = C#CC[C@H](N)C(=O)O; Aun = NCCCCCCCCCCC(=O)O; Dab = NCC[C@H](N)C(=O)O; AEEA = NCCOCCOCC(=O)O

A word on the IC50: it is the concentration that gives 50% inhibition.

T1 sequence (Q15116 25-288): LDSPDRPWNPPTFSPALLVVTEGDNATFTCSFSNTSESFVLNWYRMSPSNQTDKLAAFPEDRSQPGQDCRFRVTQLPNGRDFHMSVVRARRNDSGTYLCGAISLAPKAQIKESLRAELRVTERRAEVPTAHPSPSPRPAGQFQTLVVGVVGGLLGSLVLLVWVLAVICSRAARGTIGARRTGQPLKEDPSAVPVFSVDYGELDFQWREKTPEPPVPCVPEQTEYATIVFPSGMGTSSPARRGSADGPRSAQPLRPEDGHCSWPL

The first test concerns the target T1, PD-1/PD-L1 interaction (PE-labeled human PD-L1-Ig binding to Jurkat cell line over-expressing human PD-1) (Homo sapiens, UniProt Q15116).
T1 construct: expressed in transfected cells; host or cells: Jurkat
Kind of test: Jurkat-PD-1 Cell Binding High-Content Screening Assay (CBA). The conditions noted are these: Jurkat-hPD-1 cells, PE-labeled PD-L1-Ig 20 nM final; read-out: Jurkat HPD1 PDL1 IC50. In outline:
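Jurkat cells overexpressing human PD-1 (8×10^3/well, DMEM + 10% FCS) preincubated with compound 2 h at 37 °C, then PE-labelled human PD-L1-Ig (20 nM final) for 1 h. Cells fixed in paraformaldehyde with Hoechst 33342; bound PD-L1 quantified by high-content imaging.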
With `Cc1cccc(C[C@@H]2NC(=O)[C@H](CC(=O)O)NC(=O)[C@H](Cc3ccc(C(=O)O)cc3)NC(=O)[C@H](CCN)NC(=O)CSC[C@@H](C(=O)N[C@@H](CCN)C(=O)NCCCCCCCCCCC(=O)O)NC(=O)[C@H](CO)NC(=O)[C@H](C(C)(C)O)NC(=O)[C@H](CC3CCCCC3)NC(=O)[C@H](CCN)NC(=O)[C@@H](CC(C)C)NC(=O)[C@H](C)N(C)C(=O)[C@H](Cc3ccc(OCC(=O)O)cc3)NC(=O)[C@H](Cc3ccc(-c4ccccc4)cc3)NC(=O)[C@H](C3CCCCC3)NC2=O)c1` [Example 1302] ({CH2CO}-[Dab][Phe(4-COOH)]D[Phe(3-Me)][Chg][Bip]Y(Carboxymethyl)[NMeA][dL][Dab][Cha][Val(3-OH)]SC[Dab][Aun]-OH; thioether N-14), the IC50 is 17.6 nM.
Same read-out and setting: then `CC(C)C[C@@H]1NC(=O)[C@H](Cc2c[nH]c3ccccc23)NC(=O)[C@H](CC(=O)O)NC(=O)[C@H](Cc2ccc(OCC(=O)O)cc2)NC(=O)[C@H](Cc2ccccc2)NC(=O)CSC[C@@H](C(=O)N[C@@H](CCCN)C(=O)NCCCCCCCCCCC(=O)O)NC(=O)[C@H]([C@@H](C)O)NC(=O)[C@H](C(C)C)NC(=O)[C@H](CC(C)C)NC(=O)[C@H](CC(N)=O)NC(=O)[C@@H](CC(C)C)NC(=O)[C@H](C)N(C)C(=O)[C@H](C(C)C)NC(=O)[C@H](Cc2ccc(-c3ccccc3)cc2)NC1=O` [Example 1335] ({CH2CO}-FY(Carboxymethyl)DWL[Bip]V[NMeA][dL]NLVTC[Orn][Aun]-OH; thioether N-14), with 59 nM; and `C#CC[C@H](NC(=O)[C@H](CCN)NC(=O)[C@@H]1CSCC(=O)N[C@@H]([C@@H](C)O)C(=O)N[C@@H](Cc2ccc(OCC(=O)O)cc2)C(=O)N[C@@H](CC(=O)O)C(=O)N[C@@H](Cc2cccc(C)c2)C(=O)N[C@@H](Cc2ccc(C(=O)O)cc2)C(=O)N[C@@H](Cc2ccc(-c3ccccc3)cc2)C(=O)N[C@@H](Cc2ccc(OCC(=O)O)cc2)C(=O)N(C)[C@@H](C)C(=O)N[C@H](CC(C)C)C(=O)N[C@@H](CCN)C(=O)N[C@@H](CC2CCCCC2)C(=O)N[C@@H](C(C)C)C(=O)N[C@@H]([C@@H](C)O)C(=O)N1)C(=O)NCCCCCCCCCCC(=O)O` [Example 1240] ({CH2CO}-TY(Carboxymethyl)D[Phe(3-Me)][Phe(4-COOH)][Bip]Y(Carboxymethyl)[NMeA][dL][Dab][Cha]VTC[Dab][Pra][Aun]-OH; thioether N-14), with 20.7 nM.
On the same count and under the same terms, then `Cc1cccc(C[C@@H]2NC(=O)[C@H](CC(=O)O)NC(=O)[C@H](Cc3ccc(C(=O)O)cc3)NC(=O)[C@H](Cc3ccncc3)NC(=O)CSC[C@@H](C(=O)N[C@@H](CCN)C(=O)NCCOCCOCC(=O)NCCCCCCCCCCC(=O)O)NC(=O)[C@H](CCCN)NC(=O)[C@H](C(C)C)NC(=O)[C@H](CC3CCCCC3)NC(=O)[C@H](CCN)NC(=O)[C@@H](CC(C)C)NC(=O)[C@H](C)N(C)C(=O)[C@H](CCCNC(N)=O)NC(=O)[C@H](Cc3ccc(-c4ccccc4)cc3)NC(=O)[C@H](Cc3ccc(C(=O)O)cc3)NC2=O)c1` [Example 1404] ({CH2CO}-[4Pal][Phe(4-COOH)]D[Phe(3-Me)][Phe(4-COOH)][Bip][Cit][NMeA][dL][Dab][Cha]V[Orn]C[Dab][AEEA][Aun]-OH; thioether N-14), with 26.1 nM; and `CC(C)C[C@@H]1NC(=O)[C@H](Cc2c[nH]c3ccccc23)NC(=O)[C@H](CC(=O)O)NC(=O)[C@H](Cc2ccc(OCC(=O)O)cc2)NC(=O)[C@H](CCCCNC(=N)N)NC(=O)CSC[C@@H](C(=O)N[C@@H](C)C(=O)N[C@@H](CCN)C(=O)NCCCCCCCCCCCCCCC(=O)O)NC(=O)[C@H](CO)NC(=O)[C@H](C(C)C)NC(=O)[C@H](CC2CCCCC2)NC(=O)[C@H](CCN)NC(=O)[C@@H](CC(C)C)NC(=O)[C@H](C)N(C)C(=O)[C@H](C(C)C)NC(=O)[C@H](Cc2ccc(-c3ccccc3)cc2)NC1=O` [Example 2002] ({CH2CO}-[hArg]Y(Carboxymethyl)DWL[Bip]V[NMeA][dL][Dab][Cha]VSCA[Dab]-{NH(CH2)14COOH}; thioether N-14), with 65.4 nM.
Same read-out and setting: then `Cc1cccc(C[C@@H]2NC(=O)[C@H](CC(=O)O)NC(=O)[C@H](Cc3ccc(C(=O)O)cc3)NC(=O)[C@H](Cc3ccc(OCC(=O)O)cc3)NC(=O)CSC[C@@H](C(=O)NCCOCCOCC(=O)NCCCCCCCCCCC(=O)O)NC(=O)[C@H](C(C)O)NC(=O)[C@H](C(C)C)NC(=O)[C@H](CC3CCCCC3)NC(=O)[C@H](CCN)NC(=O)[C@@H](CC(C)C)NC(=O)[C@H](C)N(C)C(=O)[C@H](CCC(N)=O)NC(=O)[C@H](Cc3ccc(-c4ccccc4)cc3)NC(=O)[C@H](C(C)C)NC2=O)c1` (stereo partly drawn) [Example 2284] ({CH2CO}-Y(Carboxymethyl)[Phe(4-COOH)]D[Phe(3-Me)]V[Bip]Q[NMeA][dL][Dab][Cha]V[Thr(3ξ)]C[AEEA][Aun]-OH; thioether N-14), with 23.6 nM; and `Cc1cccc(C[C@@H]2NC(=O)[C@H](CC(=O)O)NC(=O)[C@H](Cc3ccc(C(=O)O)cc3)NC(=O)[C@H](Cc3ccc(OCC(=O)O)cc3)NC(=O)CSC[C@@H](C(=O)N[C@H](CC(N)=O)C(=O)NCCCCCCCCCCC(=O)O)NC(=O)[C@H](CO)NC(=O)[C@H](C(C)C)NC(=O)[C@H](CC3CCCCC3)NC(=O)[C@H](CCN)NC(=O)[C@@H](CC(C)C)NC(=O)[C@H](C)N(C)C(=O)[C@H](C(C)C)NC(=O)[C@H](Cc3ccc(-c4ccccc4)cc3)NC(=O)[C@H](CC(C)C)NC2=O)c1` [Example 2235] ({CH2CO}-Y(Carboxymethyl)[Phe(4-COOH)]D[Phe(3-Me)]L[Bip]V[NMeA][dL][Dab][Cha]VSC[dN][Aun]-OH; thioether N-14), with 20 nM.
Turning to `CC(C)C[C@@H]1NC(=O)[C@H](Cc2c[nH]c3ccccc23)NC(=O)[C@H](CC(=O)O)NC(=O)[C@H](Cc2ccncc2)NC(=O)[C@H](Cc2ccc(OCC(=O)O)cc2)NC(=O)CSC[C@@H](C(=O)N[C@@H](CCN)C(=O)NCCCCCCCCCCC(=O)O)NC(=O)[C@H]([C@@H](C)O)NC(=O)[C@H](C(C)C)NC(=O)[C@H](CC2CCCCC2)NC(=O)[C@H](CCN)NC(=O)[C@@H](CC(C)C)NC(=O)[C@H](C)N(C)C(=O)[C@H](Cc2ccc(O)cc2)NC(=O)[C@H](Cc2ccc(-c3ccccc3)cc2)NC1=O` [Example 1325] ({CH2CO}-Y(Carboxymethyl)[4Pal]DWL[Bip]Y[NMeA][dL][Dab][Cha]VTC[Dab][Aun]-OH; thioether N-14), the half-inhibitory concentration (IC50) came to 28.1 nM.

The same test, now with this note: PE-labeled PD-L1-Ig 20 nM final, Jurkat-hPD-1 cells; read-out: Jurkat HPD1 PDL1 IC50.
Turning to `Cc1cccc(C[C@@H]2NC(=O)[C@H](CC(=O)O)NC(=O)[C@H](Cc3ccc(C(=O)O)cc3)NC(=O)[C@H](C(C)O)NC(=O)CSC[C@@H](C(=O)N[C@@H](CCN)C(=O)NCCOCCOCC(=O)NCCCCCCCCCCC(=O)O)NC(=O)[C@H](Cc3cnc[nH]3)NC(=O)[C@H](C(C)(C)O)NC(=O)[C@H](CC3CCCCC3)NC(=O)[C@H](CCN)NC(=O)[C@@H](CC(C)C)NC(=O)[C@H](C)N(C)C(=O)[C@H](Cc3ccc(C(=O)O)cc3)NC(=O)[C@H](Cc3ccc(-c4ccccc4)cc3)NC(=O)[C@H](Cc3ccc(C(=O)O)cc3)NC2=O)c1` (stereo partly drawn) [Example 2545] ({CH2CO}-[Thr(3ξ)][Phe(4-COOH)]D[Phe(3-Me)][Phe(4-COOH)][Bip][Phe(4-COOH)][NMeA][dL][Dab][Cha][Val(3-OH)]HC[Dab][AEEA][Aun]-OH; thioether N-14), the IC50 amounted to 13.1 nM.
Same read-out and setting: then `Cc1cccc(C[C@@H]2NC(=O)[C@H](CC(=O)O)NC(=O)[C@H](Cc3ccc(OCC(=O)O)cc3)NC(=O)[C@H](CCN)NC(=O)CSC[C@@H](C(=O)N[C@@H](CCN)C(=O)NCCCCCCCCCCC(=O)O)NC(=O)[C@H](CO)NC(=O)[C@H](C(C)(C)O)NC(=O)[C@H](CC3CCCCC3)NC(=O)[C@H](Cc3c[nH]cn3)NC(=O)[C@@H](CC(C)C)NC(=O)[C@H](C)N(C)C(=O)[C@H](Cc3ccc(OCC(=O)O)cc3)NC(=O)[C@H](Cc3ccc(-c4ccccc4)cc3)NC(=O)[C@H](Cc3ccc(OCC(=O)O)cc3)NC2=O)c1` [Example 2465] ({CH2CO}-[Dab]Y(Carboxymethyl)D[Phe(3-Me)]Y(Carboxymethyl)[Bip]Y(Carboxymethyl)[NMeA][dL]H[Cha][Val(3-OH)]SC[Dab][Aun]-OH; thioether N-14), with 70.2 nM.
Still for that read-out and setting: then `Cc1cccc(C[C@@H]2NC(=O)[C@H](CC(=O)O)NC(=O)[C@H](Cc3ccc(C(=O)O)cc3)NC(=O)[C@H](CCN)NC(=O)CSC[C@@H](C(=O)N[C@@H](CCN)C(=O)NCCOCCOCC(=O)NCCCCCCCCCCC(=O)O)NC(=O)[C@H](CCC(=O)O)NC(=O)[C@H](C(C)C)NC(=O)[C@H](CC3CCCCC3)NC(=O)[C@H](CCN)NC(=O)[C@@H](CC(C)C)NC(=O)[C@H](C)N(C)C(=O)[C@H](Cc3ccc(C(=O)O)cc3)NC(=O)[C@H](Cc3ccc(-c4ccccc4)cc3)NC(=O)[C@H](Cc3ccc(C(=O)O)cc3)NC2=O)c1` [Example 2546] ({CH2CO}-[Dab][Phe(4-COOH)]D[Phe(3-Me)][Phe(4-COOH)][Bip][Phe(4-COOH)][NMeA][dL][Dab][Cha]VEC[Dab][AEEA][Aun]-OH; thioether N-14), with 11.7 nM; and `CC(=O)NCCCC[C@@H]1NC(=O)[C@H](C(C)C)NC(=O)[C@H](CC2CCCCC2)NC(=O)[C@H](CCN)NC(=O)[C@@H](CC(C)C)NC(=O)[C@H](C)N(C)C(=O)[C@H](CCC(N)=O)NC(=O)[C@H](Cc2ccc(-c3ccccc3)cc2)NC(=O)[C@H](CC(C)C)NC(=O)[C@H](Cc2c[nH]c3ccccc23)NC(=O)[C@H](CC(=O)O)NC(=O)[C@H](Cc2ccc(OCC(=O)O)cc2)NC(=O)[C@H](Cc2ccsc2)NC(=O)CSC[C@@H](C(=O)N[C@@H](CCN)C(=O)NCCOCCOCC(=O)NCCCCCCCCCCC(=O)O)NC1=O` [Example 2503] ({CH2CO}-[3Thi]Y(Carboxymethyl)DWL[Bip]Q[NMeA][dL][Dab][Cha]VK(Ac)C[Dab][AEEA][Aun]-OH; thioether N-14), with 12.2 nM.

The values are drawn from patent US20260070945A1, “MACROCYCLIC IMMUNOMODULATORS” (Bristol-Myers Squibb Company, priority 2022, published 2026).
